Reference: patent US9376429B2, “Sodium channel blockers, preparation method thereof and use thereof” (Daewoong Pharmaceutical Co., Ltd., priority 2012, dated 2016)

biological target: T1, sodium ion channel (Nav1.7) (Homo sapiens, UniProt Q15858); assay: Blocking effect against sodium ion channel (Nav1.7), IonFlux16 auto patch clamp, hNav1.7 HEK293 cells; assay type: cell-based; conditions: peak current after 50 seconds treatment, eight concentrations
T1 construct: host or cells: HEK293
How it was run: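 HEK293 cells stably expressing human Nav1.7 were recorded by IonFlux16 automated patch clamp in extracellular solution (pH 7.45, final DMSO ≤0.3%). Peak current was measured after 50 s exposure to each of eight compound concentrations and expressed as percent inhibition relative to pre-compound current.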

T1 sequence (Q15858 whole entry): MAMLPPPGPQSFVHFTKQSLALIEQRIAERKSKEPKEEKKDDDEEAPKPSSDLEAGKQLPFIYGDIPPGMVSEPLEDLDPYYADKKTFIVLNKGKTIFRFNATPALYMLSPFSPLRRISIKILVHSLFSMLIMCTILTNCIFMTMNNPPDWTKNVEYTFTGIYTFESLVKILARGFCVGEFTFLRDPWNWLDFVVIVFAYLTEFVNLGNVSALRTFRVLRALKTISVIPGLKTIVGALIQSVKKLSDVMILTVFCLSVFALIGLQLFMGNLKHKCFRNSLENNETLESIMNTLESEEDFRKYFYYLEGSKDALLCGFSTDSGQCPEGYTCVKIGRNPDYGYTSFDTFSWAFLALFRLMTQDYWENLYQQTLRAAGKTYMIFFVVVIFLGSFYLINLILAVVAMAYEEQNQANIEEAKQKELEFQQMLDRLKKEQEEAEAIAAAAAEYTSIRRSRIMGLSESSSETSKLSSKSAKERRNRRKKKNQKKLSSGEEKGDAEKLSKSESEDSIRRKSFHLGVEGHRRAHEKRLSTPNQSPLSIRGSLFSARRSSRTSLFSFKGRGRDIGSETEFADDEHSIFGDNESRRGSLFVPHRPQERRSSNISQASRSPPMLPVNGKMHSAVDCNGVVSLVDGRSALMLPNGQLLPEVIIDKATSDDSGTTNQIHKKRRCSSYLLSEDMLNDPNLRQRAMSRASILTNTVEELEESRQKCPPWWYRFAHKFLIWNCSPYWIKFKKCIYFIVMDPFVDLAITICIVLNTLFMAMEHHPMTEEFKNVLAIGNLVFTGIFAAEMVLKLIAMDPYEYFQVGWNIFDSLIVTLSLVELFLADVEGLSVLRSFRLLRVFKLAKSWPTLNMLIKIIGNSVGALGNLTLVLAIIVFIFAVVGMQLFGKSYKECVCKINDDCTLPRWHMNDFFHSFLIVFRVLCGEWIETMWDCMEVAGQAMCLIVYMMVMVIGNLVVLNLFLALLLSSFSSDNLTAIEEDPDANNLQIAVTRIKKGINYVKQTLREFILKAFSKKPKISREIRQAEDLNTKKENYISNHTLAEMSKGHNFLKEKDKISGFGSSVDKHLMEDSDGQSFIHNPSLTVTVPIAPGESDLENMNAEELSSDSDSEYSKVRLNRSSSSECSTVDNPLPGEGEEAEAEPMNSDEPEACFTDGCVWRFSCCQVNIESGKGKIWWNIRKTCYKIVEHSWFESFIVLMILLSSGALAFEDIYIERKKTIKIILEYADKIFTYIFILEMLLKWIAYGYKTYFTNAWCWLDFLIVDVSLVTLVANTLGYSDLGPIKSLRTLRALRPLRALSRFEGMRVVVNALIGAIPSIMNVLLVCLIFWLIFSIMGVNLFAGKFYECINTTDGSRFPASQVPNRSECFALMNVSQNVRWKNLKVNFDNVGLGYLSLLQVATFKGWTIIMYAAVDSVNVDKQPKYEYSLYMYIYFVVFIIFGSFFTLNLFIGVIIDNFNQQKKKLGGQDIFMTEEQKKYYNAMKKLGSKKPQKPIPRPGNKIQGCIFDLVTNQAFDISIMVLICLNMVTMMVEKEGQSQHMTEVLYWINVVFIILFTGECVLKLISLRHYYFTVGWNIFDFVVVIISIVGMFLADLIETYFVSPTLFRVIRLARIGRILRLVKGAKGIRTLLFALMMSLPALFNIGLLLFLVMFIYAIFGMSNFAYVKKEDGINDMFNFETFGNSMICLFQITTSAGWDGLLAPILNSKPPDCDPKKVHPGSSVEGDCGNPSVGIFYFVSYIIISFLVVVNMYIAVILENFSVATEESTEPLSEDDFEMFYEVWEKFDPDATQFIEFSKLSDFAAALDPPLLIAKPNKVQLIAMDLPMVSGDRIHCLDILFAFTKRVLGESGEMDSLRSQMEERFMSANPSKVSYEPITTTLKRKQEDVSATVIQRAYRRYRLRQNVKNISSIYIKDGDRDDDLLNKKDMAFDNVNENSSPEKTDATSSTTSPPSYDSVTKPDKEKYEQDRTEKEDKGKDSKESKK

IC50 | SMILES
> 100 nM | O=S(=O)(Nc1nccs1)c1ccc(C(O)c2ccc(Cl)cc2-c2ccncc2)cc1 (stereo not drawn) [Example 147, 4-((4-chloro-2-(pyridin-4-yl)phenyl)(hydroxy)methyl)-N-(thiazol-2-yl)benzenesulfonamide]
> 100 nM | Cn1nccc1-c1nc(-c2ccc(F)nc2F)ccc1Oc1ccc(S(=O)(=O)Nc2nccs2)cc1C#N [Example 128, 3-cyano-4-((2′,6′-difluoro-6-(1-methyl-1H-pyrazol-5-yl)-[2,3′-bipyridin]-5-yl)oxy)-N-(thiazol-2-yl)benzenesulfonamide]
> 100 nM | N#Cc1cc(S(=O)(=O)Nc2cscn2)ccc1Oc1cnc(-c2ccc(C(F)(F)F)c(F)c2)cc1-c1cccnc1 [Example 86, 3-cyano-4-((6′-(3-fluoro-4-(trifluoromethyl)phenyl)-[3,4′-bipyridin]-3′-yl)oxy)-N-(thiazol-4-yl)benzenesulfonamide]
51 to 100 nM | O=S(=O)(Nc1cscn1)c1cc(Cl)c(Oc2ccc(-c3ccc(F)cc3)nc2-c2ccoc2)cc1F [Example 131, 5-chloro-2-fluoro-4-((6-(4-fluorophenyl)-2-(furan-3-yl)pyridin-3-yl)oxy)-N-(thiazol-4-yl)benzenesulfonamide]
> 100 nM | O=S(=O)(Nc1nccs1)c1ccc(Oc2cnc(-c3cccnc3F)cc2-c2ccoc2)c(F)c1 [Example 47, 3-fluoro-4-((2′-fluoro-4-(furan-3-yl)-[2,3′-bipyridin]-5-yl)oxy)-N-(thiazol-2-yl)benzenesulfonamide]
> 100 nM | N#Cc1cc(S(=O)(=O)Nc2nccs2)ccc1Oc1ccc(-c2ccsc2)nc1-c1ccoc1 [Example 113, 3-cyano-4-((2-(furan-3-yl)-6-(thiophen-3-yl)pyridin-3-yl)oxy)-N-(thiazol-2-yl)benzenesulfonamide]
> 100 nM | N#Cc1cc(S(=O)(=O)Nc2cscn2)ccc1Oc1cnc(-c2cccc(F)c2)cc1-c1cn[nH]c1 [Example 83, 3-cyano-4-((6-(3-fluorophenyl)-4-(1H-pyrazol-4-yl)pyridin-3-yl)oxy)-N-(thiazol-4-yl)benzenesulfonamide]
> 100 nM | N#Cc1cc(S(=O)(=O)Nc2nccs2)ccc1Oc1ccc(-c2cccnc2)nc1-c1ccoc1 [Example 105, 3-cyano-4-((6-(furan-3-yl)-[2,3′-bipyridin]-5-yl)oxy)-N-(thiazol-2-yl)benzenesulfonamide]
> 100 nM | Cn1nccc1-c1cc(-c2cccnc2)ncc1Oc1ccc(S(=O)(=O)Nc2nccs2)cc1F [Example 21, 3-fluoro-4-((4-(1-methyl-1H-pyrazol-5-yl)-[2,3′-bipyridin]-5-yl)oxy)-N-(thiazol-2-yl)benzenesulfonamide]
> 100 nM | O=S(=O)(Nc1cscn1)c1cc(Cl)c(Oc2cnc(-c3ccc(F)cc3)cc2-c2ccoc2)cc1F [Example 61, 5-chloro-2-fluoro-4-((6-(4-fluorophenyl)-4-(furan-3-yl)pyridin-3-yl)oxy)-N-(thiazol-4-yl)benzenesulfonamide]
> 100 nM | Cn1cc(-c2cc(-c3ccc(F)cc3)ncc2Oc2cc(F)c(S(=O)(=O)Nc3cscn3)cc2Cl)cn1 [Example 65, 5-chloro-2-fluoro-4-((6-(4-fluorophenyl)-4-(1-methyl-1H-pyrazol-4-yl)pyridin-3-yl)oxy)-N-(thiazol-4-yl)benzenesulfonamide 2,2,2-trifluoroacetate]
> 100 nM | O=S(=O)(Nc1cscn1)c1cc(F)c(Oc2cnc(-c3ccc(C(F)(F)F)c(F)c3)cc2-c2cccnc2)cc1F [Example 89, 2,5-difluoro-4-((6′-(3-fluoro-4-(trifluoromethyl)phenyl)-[3,4′-bipyridin]-3′-yl)oxy)-N-(thiazol-4-yl)benzenesulfonamide]
> 100 nM | N#Cc1cc(S(=O)(=O)Nc2nccs2)ccc1Oc1ccc(-c2ccncc2)nc1-c1ccoc1 [Example 111, 3-cyano-4-((6-(furan-3-yl)-[2,4′-bipyridin]-5-yl)oxy)-N-(thiazol-2-yl)benzenesulfonamide]
> 100 nM | Cc1ccc(-c2cc(-c3ccccc3)ncc2Oc2ccc(S(=O)(=O)Nc3nccs3)cc2C#N)s1 [Example 42, 3-cyano-4-((4-(5-methylthiophen-2-yl)-6-phenylpyridin-3-yl)oxy)-N-(thiazol-2-yl)benzenesulfonamide]
> 100 nM | N#Cc1cc(S(=O)(=O)Nc2cscn2)ccc1Oc1cnc(-c2ccc(F)c(F)c2)cc1-c1cn[nH]c1 [Example 91, 3-cyano-4-((6-(3,4-difluorophenyl)-4-(1H-pyrazol-4-yl)pyridin-3-yl)oxy)-N-(thiazol-4-yl)benzenesulfonamide]
51 to 100 nM | Cn1nccc1-c1cc(-c2ccsc2)ncc1Oc1ccc(S(=O)(=O)Nc2nccs2)cc1F [Example 22, 3-fluoro-4-((4-(1-methyl-1H-pyrazol-5-yl)-6-(thiophen-3-yl)pyridin-3-yl)oxy)-N-(thiazol-2-yl)benzenesulfonamide]
> 100 nM | N#Cc1cc(S(=O)(=O)Nc2nccs2)ccc1Oc1cnc(-c2cccnc2F)cc1-c1cccnc1 [Example 51, 3-cyano-4-((2-fluoro-[3,2′:4′,3″-terpyridin]-5′-yl)oxy)-N-(thiazol-2-yl)benzenesulfonamide]

IC50 | SMILES
51 to 100 nM | Cn1nccc1-c1cc(-c2cccc(F)c2)ncc1Oc1ccc(S(=O)(=O)Nc2nccs2)cc1C#N [Example 26, 3-cyano-4-((6-(3-fluorophenyl)-4-(1-methyl-1H-pyrazol-5-yl)pyridin-3-yl)oxy)-N-(thiazol-2-yl)benzenesulfonamide]
> 100 nM | Cn1nccc1-c1nc(-c2ccccc2F)ccc1Oc1ccc(S(=O)(=O)Nc2nccs2)cc1C#N [Example 118, 3-cyano-4-((6-(2-fluorophenyl)-2-(1-methyl-1H-pyrazol-5-yl)pyridin-3-yl)oxy)-N-(thiazol-2-yl)benzenesulfonamide]
> 100 nM | O=S(=O)(Nc1cscn1)c1cc(Cl)c(Oc2cnc(-c3ccnc(F)c3)cc2-c2ccoc2)cc1F [Example 62, 5-chloro-2-fluoro-4-((2′-fluoro-4-(furan-3-yl)-[2,4′-bipyridin]-5-yl)oxy)-N-(thiazol-4-yl)benzenesulfonamide]
> 100 nM | O=S(=O)(Nc1cscn1)c1cc(F)c(Oc2cnc(-c3ccc(F)c(F)c3)cc2-c2cncnc2)cc1F [Example 96, 4-((6-(3,4-difluorophenyl)-4-(pyrimidin-5-yl)pyridin-3-yl)oxy)-2,5-difluoro-N-(thiazol-4-yl)benzenesulfonamide]
< 50 nM | N#Cc1cc(S(=O)(=O)Nc2nccs2)ccc1Oc1cnc(-c2ccccc2)cc1-c1ccoc1 [Example 1, 3-cyano-4-(4-(furan-3-yl)-6-phenylpyridin-3-yloxy)-N-(thiazol-2-yl)benzenesolfonamide]
> 100 nM | O=S(=O)(Nc1cscn1)c1cc(Cl)c(Oc2cnc(-c3ccc(F)c(F)c3)cc2-c2ccnc(F)c2)cc1F [Example 80, 5-chloro-4-((6-(3,4-difluorophenyl)-2′-fluoro-[4,4′-bipyridin]-3-yl)oxy)-2-fluoro-N-(thiazol-4-yl)benzenesulfonamide]
> 100 nM | Cn1cc(-c2cc(-c3ccc(F)cc3F)ncc2Oc2cc(F)c(S(=O)(=O)Nc3cscn3)cc2Cl)cn1 [Example 66, 5-chloro-4-((6-(2,4-difluorophenyl)-4-(1-methyl-1H-pyrazol-4-yl)pyridin-3-yl)oxy)-2-fluoro-N-(thiazol-4-yl)benzenesulfonamide 2,2,2-trifluoroacetate]
> 100 nM | O=S(=O)(Nc1cscn1)c1cc(Cl)c(Oc2cnc(-c3cccc(F)c3)cc2-c2cccnc2)cc1F [Example 74, 5-chloro-2-fluoro-4-((6′-(3-fluorophenyl)-[3,4′-bipyridin]-3′-yl)oxy)-N-(thiazol-4-yl)benzenesulfonamide]
> 100 nM | O=S(=O)(Nc1nccs1)c1ccc(C(O)c2cccnc2-c2ccoc2)cc1 (stereo not drawn) [Example 156, 4-((2-(furan-3-yl)pyridin-3-yl)(hydroxy)methyl)-N-(thiazol-2-yl)benzenesulfonamide]
< 50 nM | N#Cc1cc(S(=O)(=O)Nc2nccs2)ccc1Oc1cnc(-c2ccoc2)cc1-c1ccoc1 [Example 16, 3-cyano-4-((4,6-di(furan-3-yl)pyridin-3-yl)oxy)-N-(thiazol-2-yl)benzenesulfonamide]
> 100 nM | Cn1cc(-c2cc(-c3cnn(C)c3)c(Oc3ccc(S(=O)(=O)Nc4nccs4)cc3C#N)cn2)cn1 [Example 54, 4-((4,6-bis(1-methyl-1H-pyrazol-4-yl)pyridin-3-yl)oxy)-3-cyano-N-(thiazol-2-yl)benzenesulfonamide]
> 100 nM | O=S(=O)(Nc1cscn1)c1cc(Cl)c(Oc2cnc(-c3ccc(F)c(F)c3)cc2-c2cn[nH]c2)cc1F [Example 98, 5-chloro-4-((6-(3,4-difluorophenyl)-4-(1H-pyrazol-4-yl)pyridin-3-yl)oxy)-2-fluoro-N-(thiazol-4-yl)benzenesulfonamide]
> 100 nM | Cn1nccc1-c1nc(-c2ccc(F)nc2)ccc1Oc1ccc(S(=O)(=O)Nc2nccs2)cc1C#N [Example 115, 3-cyano-4-((6′-fluoro-6-(1-methyl-1H-pyrazol-5-yl)-[2,3′-bipyridin]-5-yl)oxy)-N-(thiazol-2-yl)benzenesulfonamide]
> 100 nM | Cn1cc(-c2cc(-c3ccoc3)c(Oc3ccc(S(=O)(=O)Nc4nccs4)cc3C#N)cn2)cn1 [Example 46, 3-cyano-4-((4-(furan-3-yl)-6-(1-methyl-1H-pyrazol-4-yl)pyridin-3-yl)oxy)-N-(thiazol-2-yl)benzenesulfonamide]
> 100 nM | O=S(=O)(Nc1cscn1)c1cc(Cl)c(Oc2cnc(-c3cccc(F)c3)cc2-c2cn(-c3cccnc3)cn2)cc1F [Example 100, 5-chloro-2-fluoro-4-((6-(3-fluorophenyl)-4-(1-(pyridin-3-yl)-1H-imidazol-4-yl)pyridin-3-yl)oxy)-N-(thiazol-4-yl)benzenesulfonamide]
< 50 nM | N#Cc1cc(S(=O)(=O)Nc2nccs2)ccc1Oc1ccc(-c2cccc(F)c2)nc1-c1ccoc1 [Example 110, 3-cyano-4-((6-(3-fluorophenyl)-2-(furan-3-yl)pyridin-3-yl)oxy)-N-(thiazol-2-yl)benzenesulfonamide]
